Data taken from patent publication US9651864B2, “Negative resist composition, method for producing relief pattern using the same, and electronic component using the same” (DAI NIPPON PRINTING CO., LTD., priority 2010, dated 2017).

Legend:
Type in all cases: physicochemical
[1] = Evaluation of solvent solubility of phenolic compound in typical resist solvents; details: (D)-3: Cyclopentanone; 1 or 5 wt % at 23° C.
[2] = as above; design: key to Solubility in (D)-2: ⊚: The material for forming a pattern was dissolved at a concentration of 5 wt % at 23° C.; ◯: The material for forming a pattern was dissolved at a concentration of 1 wt % at 23° C.; X: The material for forming a pattern was insoluble; details: for Solubility in (D)-1: (D)-1: Propylene glycol monomethylether; for Solubility in (D)-1 / Solubility in (D)-2: 1 or 5 wt % at 23° C.; for Solubility in (D)-2: (D)-2: Propylene glycol monomethyl ether acetate
Method: The phenolic compounds (A-01 to A-15) obtained in Synthesis Examples 1 to 15 and the comparative phenolic compounds (CA-01 and CA-02) were added to the following typical resist solvents so as to have a concentration of 1 or 5 wt % at 23° C., followed by stirring:
(D)-1: Propylene glycol monomethylether
(D)-2: Propylene glycol monomethyl ether acetate
The thus-obtained mixtures were evaluated based on the following evaluation criterion.
? : The material for forming a pattern was dissolved at a concentration of 5 wt % at 23° C.,
∘: The material for forming a pattern was dissolved at a concentration of 1 wt % at 23° C.
x: The material for forming a pattern was insoluble.

[3] = Glass transition temperature (Tg) by differential thermal analyzer DSC-60; details: second heating to 200° C. at 10° C./min; deemed 200° C. or more when no inflection point until 200° C.
Method: Glass transition temperature (Tg): an intersection point of two tangents to smooth curving lines before and after the inflection temperature point of a DTA curve, the DTA curve being obtained when a material for forming a pattern of about 4 mg was heated to 200° C. at a rate of 10° C./min, cooled to room temperature and then heated to 200° C. at a rate of 10° C./min again, with a differential thermal analyzer (DSC-60 manufactured by Shimadzu Corporation).
Tg was deemed as 200° C. or more when no inflection point was found on the DTA curve until 200° C., which point corresponds to glass transition temperature.

| Structure (SMILES) | Glass Transition Temperature [3] | solubility in propylene glycol monomethyl ether [2] [%] | solubility in resist solvents (in words) ([2]; summary of Table 3) | Solubility in (D)-3 [1] | Solubility in (D)-1 [2] | Solubility in (D)-2 [2] |
| --- | --- | --- | --- | --- | --- | --- |
| CC(C)(C1CCC(c2cc(CO)c(O)c(CO)c2)(c2cc(CO)c(O)c(CO)c2)CC1)C1CCC(c2cc(CO)c(O)c(CO)c2)(c2cc(CO)c(O)c(CO)c2)CC1 [Compound A-01] | 63 °C | 2 | – | ⊚ (The material for forming a pattern was dissolved at a concentration of 5 wt % at 23° C.) | ◯ (The material for forming a pattern was dissolved at a concentration of 1 wt % at 23° C.) | ◯ (The material for forming a pattern was dissolved at a concentration of 1 wt % at 23° C.) |
| OCc1cc(C(c2cc(CO)c(O)c(C3CCCCC3)c2)C(c2cc(CO)c(O)c(C3CCCCC3)c2)c2cc(CO)c(O)c(C3CCCCC3)c2)cc(C2CCCCC2)c1O [Compound A-09] | 200 °C or | – | – | ⊚ (The material for forming a pattern was dissolved at a concentration of 5 wt % at 23° C.) | ⊚ (The material for forming a pattern was dissolved at a concentration of 5 wt % at 23° C.) | ⊚ (The material for forming a pattern was dissolved at a concentration of 5 wt % at 23° C.) |
| c1cc(C(c2ccc(OCC3CO3)cc2)C(c2ccc(OCC3CO3)cc2)c2ccc(OCC3CO3)cc2)ccc1OCC1CO1 (stereo not drawn) [TEP-G, reference compound] | 47 °C | – | – | – | – | – |
| COCc1cc(C(c2cc(C)c(O)c(COC)c2)C(c2cc(C)c(O)c(COC)c2)c2cc(C)c(O)c(COC)c2)cc(C)c1O [Compound A-12] | 200 °C or | – | – | ⊚ (The material for forming a pattern was dissolved at a concentration of 5 wt % at 23° C.) | ⊚ (The material for forming a pattern was dissolved at a concentration of 5 wt % at 23° C.) | ⊚ (The material for forming a pattern was dissolved at a concentration of 5 wt % at 23° C.) |

The next lines start with results.

| Glass Transition Temperature [3] | solubility in propylene glycol monomethyl ether [2] [%] | solubility in resist solvents (in words) ([2]; summary of Table 3) | Structure (SMILES) | Solubility in (D)-3 [1] | Solubility in (D)-1 [2] | Solubility in (D)-2 [2] |
| --- | --- | --- | --- | --- | --- | --- |
| 62 °C | – | – | OCc1cc(C2(c3cc(CO)c(O)c(CO)c3)c3ccccc3-c3ccccc32)cc(CO)c1O [Compound A-04] | ⊚ (The material for forming a pattern was dissolved at a concentration of 5 wt % at 23° C.) | ⊚ (The material for forming a pattern was dissolved at a concentration of 5 wt % at 23° C.) | ⊚ (The material for forming a pattern was dissolved at a concentration of 5 wt % at 23° C.) |
| 200 °C or | – | – | Cc1cc(C2(c3cc(C)c(O)c(CO)c3)CCC(C(C)(C)C3CCC(c4cc(C)c(O)c(CO)c4)(c4cc(C)c(O)c(CO)c4)CC3)CC2)cc(CO)c1O [Compound A-13] | ⊚ (The material for forming a pattern was dissolved at a concentration of 5 wt % at 23° C.) | ⊚ (The material for forming a pattern was dissolved at a concentration of 5 wt % at 23° C.) | ⊚ (The material for forming a pattern was dissolved at a concentration of 5 wt % at 23° C.) |
| 135 °C | – | – | CC(C)(c1cccc(C(C)(C)c2cc(CO)c(O)c(CO)c2)c1)c1cc(CO)c(O)c(CO)c1 [Compound A-05] | ⊚ (The material for forming a pattern was dissolved at a concentration of 5 wt % at 23° C.) | ⊚ (The material for forming a pattern was dissolved at a concentration of 5 wt % at 23° C.) | ◯ (The material for forming a pattern was dissolved at a concentration of 1 wt % at 23° C.) |
| 27 °C | – | dissolve in only specific solvents | CC(C)(c1cc(CO)c(O)c(CO)c1)c1cc(CO)c(O)c(CO)c1 [CA-01, 2,2-bis(4-hydroxy-3,5-dihydroxymethylphenyl)propane, reference compound] | ◯ (The material for forming a pattern was dissolved at a concentration of 1 wt % at 23° C.) | ◯ (The material for forming a pattern was dissolved at a concentration of 1 wt % at 23° C.) | X |
| 200 °C or | 5 | – | Cc1cc(C(c2cc(C)c(O)c(CO)c2)C(c2cc(C)c(O)c(CO)c2)c2cc(C)c(O)c(CO)c2)cc(CO)c1O [Compound A-02] | ⊚ (The material for forming a pattern was dissolved at a concentration of 5 wt % at 23° C.) | ⊚ (The material for forming a pattern was dissolved at a concentration of 5 wt % at 23° C.) | ◯ (The material for forming a pattern was dissolved at a concentration of 1 wt % at 23° C.) |
